Assay results published in patent publication US9839639B2, “Neprilysin inhibitors” (THERAVANCE BIOPHARMA R&D IP, LLC, priority 2014, dated 2017).

Key:
human NEP = target: T1, human NEP (Homo sapiens, UniProt P08473); experiment: In vitro enzyme inhibition assay, inhibitor potency at human NEP; type: biochemical; details: recombinant human NEP, fluorogenic peptide substrate 10 μM, 37° C.; values given as ranges
T1 construct: purchased R&D Systems, Minneapolis, Minn; 1182-ZN
Protocol: The inhibitory activities of compounds at human and rat neprilysin (EC 3.4.24.11; NEP) and human angiotensin converting enzyme (ACE) were determined using in vitro assays as described below.
Recombinant human NEP and recombinant human ACE were obtained commercially (R&D Systems, Minneapolis, Minn., catalog numbers 1182-ZN and 929-ZN, respectively). The fluorogenic peptide substrate Mca-D-Arg-Arg-Leu-Dap-(Dnp)-OH (Medeiros et al. (1997) Braz. J. Med. Biol. Res. 30:1157-62; Anaspec, San Jose, Calif.) and Abz-Phe-Arg-Lys(Dnp)-Pro-OH (Araujo et al. (2000) Biochemistry 39:8519-8525; Bachem, Torrance, Calif.) were used in the NEP and ACE assays respectively.
The assays were performed in 384-well white opaque plates at 37° C. using the fluorogenic peptide substrates at a concentration of 10 μM in Assay Buffer (NEP: 50 mM HEPES, pH 7.5, 100 mM NaCl, 0.01% polyethylene glycol sorbitan monolaurate (Tween-20), 10 μM ZnSO4; ACE: 50 mM HEPES, pH 7.5, 100 mM NaCl, 0.01% Tween-20, 1 μM ZnSO4).
Test compounds were assayed over the range of concentrations from 10 μM to 20 pM. Test compounds were added to the enzymes and incubated for 30 minute at 37° C. prior to initiating the reaction by the addition of substrate. Reactions were terminated after 20 minutes of incubation at 37° C. by the addition of glacial acetic acid to a final concentration of 3.6% (v/v).
Plates were read on a fluorometer with excitation and emission wavelengths set to 320 nm and 405 nm, respectively. Inhibition constants were obtained by nonlinear regression of the data using the equation (GraphPad Software, Inc., San Diego, Calif.): v=v0/[1+(I/K′)] where v is the reaction rate, v0 is the uninhibited reaction rate, I is the inhibitor concentration and K′ is the apparent inhibition constant.
Compounds of the invention were tested in this assay and found to have pKi values at human NEP as follows.

[1] = Rat PO cassette assay (oral bioavailability); type: in vivo; details: plasma, male Sprague-Dawley rats, single oral gavage vs intravenous dose, 0.5 mg/kg, read-out: % F (oral bioavailability)
From the text: Oral bioavailability, or % F, is a measure of the percentage of a drug in an oral dose that actually reaches the systemic circulation. Compound losses can occur due to incomplete formulation dissolution, incomplete absorption due to compound insolubility or instability along the GI, or metabolism in the gut or across the gut wall. The fraction of the dose which reaches the hepatic portal vein must also then pass through the liver before reaching the systemic circulation. Compound metabolism, or “first-pass extraction,” can occur during this initial passage through the liver, and this is an additional potential source of compound loss. Oral bioavailability is calculated as the dose-normalized ratio of drug exposure after an oral dose to that after an intravenous dose, wherein the entire dose is delivered directly to the systemic circulation.
Each cassette study begins with 10 mM DMSO stock solutions of up to 5 different compounds. Typically, compounds are selected such no two compounds dosed in the same cassette have a molecular weight within 5 Da of each other. This simplifies subsequent bioanalysis. Appropriate volumes of each DMSO stock are added into a volume of vehicle (5% sodium bicarbonate, 5% dextrose in H2O) such that the final concentration of each compound is 0.25 mg/mL. Intravenous dosing solutions are sterile-filtered (0.2 μm) prior to dosing.
Pre-cannulated male Sprague-Dawley rats (3 per cassette per route) between 8 and 10 weeks of age were obtained from Harlan Laboratories (Indianapolis, Ind.). Rats received either a single oral gavage or a single intravenous (via lateral tail vein) dose (2 mL/kg) of the dosing solution. The final dose was 0.5 mg/kg. Serial blood samples were harvested via jugular vein cannula at 3 minutes, 15 minutes, 30 minutes, 1 hours, 2 hours, 4 hours, 6 hours, and 24 hours post-dose. Sampling was performed either manually or using automated blood samplers. Samples were collected into microtainer tubes containing EDTA as the anticoagulant and are processed to plasma by refrigerated centrifugation.
Plasma samples were extracted with 3 volumes of MeCN containing a suitable internal standard. Extracts were reconstituted into 3 volumes of water containing 1% formic acid, and analyzed via HPLC-coupled MS/MS. Plasma concentration-time data were analyzed using the Phoenix software (Pharsight Corp., St. Louis, Mo.) to calculate pharmacokinetic parameters.
Compounds of the invention of particular interest were those having a % F>10%, when tested in this assay.

T1 sequence (P08473 52-750 limits assumed): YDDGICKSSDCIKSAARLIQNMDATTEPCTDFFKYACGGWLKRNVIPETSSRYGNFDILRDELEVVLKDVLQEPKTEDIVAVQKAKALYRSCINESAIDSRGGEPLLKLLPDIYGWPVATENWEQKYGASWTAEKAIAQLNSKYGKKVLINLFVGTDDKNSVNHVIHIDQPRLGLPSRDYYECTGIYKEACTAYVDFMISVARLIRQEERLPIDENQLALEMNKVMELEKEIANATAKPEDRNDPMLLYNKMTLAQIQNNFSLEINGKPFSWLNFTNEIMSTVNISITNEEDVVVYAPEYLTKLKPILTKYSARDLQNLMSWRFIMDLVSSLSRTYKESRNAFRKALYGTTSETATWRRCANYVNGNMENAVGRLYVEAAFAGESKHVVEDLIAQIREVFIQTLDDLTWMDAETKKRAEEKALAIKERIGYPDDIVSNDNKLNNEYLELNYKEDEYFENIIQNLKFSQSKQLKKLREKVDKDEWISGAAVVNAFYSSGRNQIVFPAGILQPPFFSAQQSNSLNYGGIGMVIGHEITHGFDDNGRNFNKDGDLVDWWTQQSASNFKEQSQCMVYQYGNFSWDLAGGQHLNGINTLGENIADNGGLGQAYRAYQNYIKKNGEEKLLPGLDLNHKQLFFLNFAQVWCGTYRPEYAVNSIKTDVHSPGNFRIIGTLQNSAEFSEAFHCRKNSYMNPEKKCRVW

| Ki (human NEP) | bioavailability [1] | Structure (SMILES) |
| --- | --- | --- |
| ≤ 1 nM | > 10% | CCC(CO)(C[C@@H](Cc1ccc(-c2cc(Cl)ccc2F)cc1)NC(=O)c1cnn[nH]1)C(=O)O (single isomer, unassigned) [Example 14a] |
| ≤ 1 nM | > 10% | CCCC(CO)(C[C@@H](Cc1ccc(-c2cc(Cl)ccc2F)cc1)NC(=O)c1cnn[nH]1)C(=O)O (single isomer, unassigned) [Example 15a] |
| ≤ 1 nM | > 10% | O=C(N[C@H](Cc1ccc(-c2cc(Cl)ccc2F)cc1)CC1(C(=O)O)CCOC1)c1cnn[nH]1 (single isomer, unassigned) [Example 20a] |
| ≤ 1 nM | > 10% | CCOC[C@](C)(C[C@@H](Cc1ccc(-c2cccc(Cl)c2)cc1)NC(=O)c1noc(=O)[nH]1)C(=O)O [Example 9, (2S,4R)-5-(3′-Chlorobiphenyl-4-yl)-2-ethoxymethyl-2-methyl-4-[(5-oxo-4,5-dihydro-[1,2,4]oxadiazole-3-carbonyl)amino]pentanoic Acid] |
| 1.26 to 3.16 nM |  | CCOC[C@](C)(C[C@@H](Cc1ccc(-c2cc(Cl)ccc2F)cc1)NC(=O)c1ncco1)C(=O)O [Example 11-1, (2S,4R)-5-(5′-Chloro-2′-fluorobiphenyl-4-yl)-2-ethoxymethyl-2-methyl-4-[(oxazole-2-carbonyl)amino]pentanoic acid] |
| ≤ 1 nM |  | CCOC[C@](C)(C[C@@H](Cc1ccc(-c2cc(Cl)ccc2F)cc1)NC(=O)c1ccc(Cl)cn1)C(=O)O [Example 11-2, (2S,4R)-5-(5′-Chloro-2′-fluorobiphenyl-4-yl)-4-[(5-chloropyridine-2-carbonyl)amino]-2-ethoxymethyl-2-methylpentanoic acid] |
| 1.26 to 3.16 nM |  | CCOC[C@](C)(C[C@@H](Cc1ccc(-c2cc(Cl)ccc2F)cc1)NC(=O)c1ncccn1)C(=O)O [Example 11-3, (2S,4R)-5-(5′-Chloro-2′-fluorobiphenyl-4-yl)-2-ethoxymethyl-2-methyl-4-[(pyrimidine-2-carbonyl)amino]pentanoic acid] |
| 1.26 to 3.16 nM | > 10% | CCOC[C@](C)(C[C@@H](Cc1ccc(-c2cc(Cl)ccc2F)cc1)NC(=O)c1n[nH]nc1C)C(=O)O [Example 11-4, (2S,4R)-5-(5′-Chloro-2′-fluorobiphenyl-4-yl)-2-ethoxymethyl-2-methyl-4-[(5-methyl-2H-[1,2,3]triazole-4-carbonyl)amino]pentanoic acid] |
| 1.26 to 3.16 nM |  | NCCC(CO)(C[C@@H](Cc1ccc(-c2cc(Cl)ccc2F)cc1)NC(=O)c1cnn[nH]1)C(=O)O (stereo partly drawn) [Example 17, (R)-2-(2-Amino-ethyl)-5-(5′-chloro-2′-fluorobiphenyl-4-yl)-2-hydroxymethyl-4-[(3H-[1,2,3]triazole-4-carbonyl)amino]pentanoic Acid] |
| ≤ 1 nM |  | CC(=O)NCCC(CO)(C[C@@H](Cc1ccc(-c2cc(Cl)ccc2F)cc1)NC(=O)c1cnn[nH]1)C(=O)O (stereo partly drawn) [Example 18, (R)-2-(2-Acetylaminoethyl)-5-(5′-chloro-2′-fluorobiphenyl-4-yl)-2-hydroxymethyl-4-[(3H-[1,2,3]triazole-4-carbonyl)amino]pentanoic Acid] |
